Experimental data reported in US20230312481A1, “SUBSTITUTED (PHTHALAZIN-1-YLMETHYL)UREAS, SUBSTITUTED N-(PHTHALAZIN-1-YLMETHYL)AMIDES, AND ANALOGUES THEREOF” (priority 2020, published 2023).
pEC50: −log10 of the molar value.

Each molecule was assayed on HBV rcDNA in HepDE19 cells (assay: HepDE19 assay with bDNA quantitation of HBV rcDNA). Settings: HepDE19 cells, 7 day incubation, rcDNA measured by Quantigene 2.0 bDNA assay; top concentration 25 µM; read-out: DE-19bDNA EC50.
Format: cell-based, hepatitis B virus
Method: HepDE19 Assay With bDNA Quantitation of HBV rcDNA
HepDE19 (50,000 cells/well) were plated in 96-well collagen-coated tissue-culture treated microtiter plates in DMEM/F12 medium supplemented with 10% fetal bovine serum, 1% penicillin-streptomycin and 1 µg/mL tetracycline and incubated in a humidified incubator at 37° C. and 5% CO2 overnight. Next day, the cells were switched to fresh medium without tetracycline and incubated for 4 hours at 37° C. and 5% CO2. […] The final DMSO concentration in the assay was 0.5%. The plates were incubated for 7 days in a humidified incubator at 37° C. and 5% CO2. Following a 7 day-incubation, the level of rcDNA present in the inhibitor-treated wells was measured using a Quantigene 2.0 bDNA assay kit (Affymetrix, Santa Clara, CA) with HBV specific custom probe set and manufacturers instructions. Concurrently, the effect of compounds on cell viability was assessed using replicate plates, plated at a density of 5,000 cells/well and incubated for 4 days, to determine the ATP content as a measure of cell viability using the cell-titer glo reagent (CTG; Promega Corporation, Madison, WI) as per manufacturer’s instructions.
Representative compounds of the disclosure were tested for their abilities to inhibit formation of relaxed circular DNA (rcDNA) in a HepDE19 assay, as described elsewhere herein.

SMILES | pEC50
CC(c1n[nH]c(=O)c2cc(F)c(F)cc12)N(C)C(=O)c1ccc2ocnc2c1 (single isomer, unassigned) [Compound 88, N-(1-(6,7-difluoro-4-oxo-3,4-dihydrophthalazin-1-yl)ethyl)-N-methylbenzo[d]oxazole-5-carboxamide] | < 4.60
CC(C)CN(C(=O)Nc1ccc(F)c(Cl)c1)C(C)c1n[nH]c(=O)c2ccccc12 (single isomer, unassigned) [Compound 5, 3-(3-chloro-4-fluoro-phenyl)-1-isobutyl-1-[1-(4-oxo-3H-phthalazin-1-yl)ethyl]urea] | 8.00
CC(c1n[nH]c(=O)c2cc(F)c(F)cc12)N(C)C(=O)c1ccc2ncoc2c1 (single isomer, unassigned) [Compound 90, N-(1-(6,7-difluoro-4-oxo-3,4-dihydrophthalazin-1-yl)ethyl)-N-methylbenzo[d]oxazole-6-carboxamide] | < 4.60
CC(c1n[nH]c(=O)c2cc(F)c(F)cc12)N(C)C(=O)c1cc2c(C(F)F)cccn2c1 (single isomer, unassigned) [Compound 99, N-(1-(6,7-difluoro-4-oxo-3,4-dihydrophthalazin-1-yl)ethyl)-8-(difluoromethyl)-N-methylindolizine-2-carboxamide] | 8.00
CC(c1n[nH]c(=O)c2cc(F)c(F)cc12)N(C)C(=O)c1cc2c(C(F)F)cccn2c1 (single isomer, unassigned) [Compound 98, N-(1-(6,7-difluoro-4-oxo-3,4-dihydrophthalazin-1-yl)ethyl)-8-(difluoromethyl)-N-methylindolizine-2-carboxamide] | 5.13
CC(c1n[nH]c(=O)c2cc(F)c(F)cc12)N(C)C(=O)c1ccc2c(c1)CCC2 (single isomer, unassigned) [Compound 83, N-(1-(6,7-difluoro-4-oxo-3,4-dihydrophthalazin-1-yl)ethyl)-N-methyl-2,3-dihydro-1H-indene-5-carboxamide] | 7.10
CC(c1n[nH]c(=O)c2cc(F)c(F)cc12)N(C)C(=O)c1cc(F)c(Br)c(F)c1 (single isomer, unassigned) [Compound 101, 4-bromo-N-(1-(6,7-difluoro-4-oxo-3,4-dihydrophthalazin-1-yl)ethyl)-3,5-difluoro-N-methylbenzamide] | 7.30
CC(c1n[nH]c(=O)c2ccccc12)N(C)C(=O)Nc1ccc(F)c(Cl)c1 (single isomer, unassigned) [Compound 3, 3-(3-chloro-4-fluoro-phenyl)-1-methyl-1-[1-(4-oxo-3H-phthalazin-1-yl)ethyl]urea] | 4.85
CC(c1n[nH]c(=O)c2cc(F)c(F)cc12)N(C)C(=O)c1cc2c(C(F)F)cc(F)cc2[nH]1 (single isomer, unassigned) [Compound 97, N-(1-(6,7-difluoro-4-oxo-3,4-dihydrophthalazin-1-yl)ethyl)-4-(difluoromethyl)-6-fluoro-N-methyl-1H-indole-2-carboxamide] | 7.70
CC(c1n[nH]c(=O)c2cc(F)c(F)cc12)N(C)C(=O)c1cc(F)c(C(F)F)c(F)c1 (single isomer, unassigned) [Compound 108, N-(1-(6,7-difluoro-4-oxo-3,4-dihydrophthalazin-1-yl)ethyl)-4-(difluoromethyl)-3,5-difluoro-N-methylbenzamide] | 5.00
CC(c1n[nH]c(=O)c2cc(F)c(F)cc12)N(C)C(=O)c1ccc2ocnc2c1 (single isomer, unassigned) [Compound 89, N-(1-(6,7-difluoro-4-oxo-3,4-dihydrophthalazin-1-yl)ethyl)-N-methylbenzo[d]oxazole-5-carboxamide] | 5.62

Same assay, conditions: Hepatitis B virus, HepDE19, 168 h, HepDE19 cells, 7 day incubation, rcDNA measured by Quantigene 2.0 bDNA assay; top concentration 25 µM; read-out: DE-19bDNA EC50

SMILES | pEC50
CC(C)CN(C(=O)Nc1ccc(F)cc1)C(C)c1n[nH]c(=O)c2ccccc12 (racemic) [Compound 19, 3-(4-fluorophenyl)-1-isobutyl-1-(1-(4-oxo-3,4-dihydrophthalazin-1-yl)ethyl)urea] | 7.32
CC(C)CN(C(=O)Nc1ccc(F)c(Cl)c1)C(C)c1n[nH]c(=O)c2ccccc12 (racemic) [Compound 2, 3-(3-chloro-4-fluoro-phenyl)-1-isobutyl-1-[1-(4-oxo-3H-phthalazin-1-yl)ethyl]urea] | 8.00
CC(c1n[nH]c(=O)c2cc(F)c(F)cc12)N(C)C(=O)c1ccc(Br)cc1 (racemic) [Compound 65, 4-bromo-N-(1-(6,7-difluoro-4-oxo-3,4-dihydrophthalazin-1-yl)ethyl)-N-methylbenzamide] | 7.22
CC(c1nn(C)c(=O)c2cc(F)c(F)cc12)N(CCS(=O)(=O)NC(=O)Nc1ccc(F)c(Cl)c1)C(=O)Nc1ccc(F)c(Cl)c1 (racemic) [Compound 30, 3-(3-chloro-4-fluoro-phenyl)-1-[2-[(3-chloro-4-fluorophenyl)carbamoylsulfamoyl]ethyl]-1-[1-(6,7-difluoro-3-methyl-4-oxo-phthalazin-1-yl)ethyl]urea] | 7.24
CC(c1n[nH]c(=O)c2cc(F)c(F)cc12)N(C)C(=O)c1cc2c(F)cccc2[nH]1 (racemic) [Compound 53, N-(1-(6,7-difluoro-4-oxo-3,4-dihydrophthalazin-1-yl)ethyl)-4-fluoro-N-methyl-1H-indole-2-carboxamide] | 7.08
CC(c1nn(C)c(=O)c2cc(F)c(F)cc12)N(CCCO)C(=O)Nc1ccc(F)c(Cl)c1 (racemic) [Compound 25, 3-(3-chloro-4-fluorophenyl)-1-(1-(6,7-difluoro-3-methyl-4-oxo-3,4-dihydrophthalazin-1-yl)ethyl)-1-(3-hydroxypropyl)urea] | 8.00
C[C@@H](c1n[nH]c(=O)c2cc(F)c(F)cc12)N(C)C(=O)Nc1ccc(F)c(Cl)c1 [Compound 31, 3-(3-chloro-4-fluorophenyl)-1-(1-(6,7-difluoro-4-oxo-3,4-dihydrophthalazin-1-yl)ethyl)-1-methylurea] | 5.74
CC(C)CN(C(=O)Nc1ccc(F)c(Cl)c1)C(C)c1nn(C)c(=O)c2ccccc12 (racemic) [Compound 8, 3-(3-chloro-4-fluorophenyl)-1-isobutyl-1-(1-(3-methyl-4-oxo-3,4-dihydrophthalazin-1-yl)ethyl)urea] | 7.70
CC(C)CN(C(=O)NC1CC1)C(C)c1nn(C)c(=O)c2cc(F)c(F)cc12 (racemic) [Compound 33, 3-cyclopropyl-1-(1-(6,7-difluoro-3-methyl-4-oxo-3,4-dihydrophthalazin-1-yl)ethyl)-1-isobutylurea] | 5.20
CC(c1n[nH]c(=O)c2cc(F)c(F)cc12)N(C)C(=O)c1ccc(C(F)(F)F)c(F)c1 (racemic) [Compound 62, N-(1-(6,7-difluoro-4-oxo-3,4-dihydrophthalazin-1-yl)ethyl)-3-fluoro-N-methyl-4-(trifluoromethyl)benzamide] | 7.00
CC(c1n[nH]c(=O)c2cc(F)c(F)cc12)N(C)C(=O)c1cc2c(F)c(F)ccc2[nH]1 (racemic) [Compound 54, N-(1-(6,7-difluoro-4-oxo-3,4-dihydrophthalazin-1-yl)ethyl)-4,5-difluoro-N-methyl-1H-indole-2-carboxamide] | 7.62
CCN(C(=O)c1cc2c(F)c(F)ccc2[nH]1)C(C)c1n[nH]c(=O)c2cc(F)c(F)cc12 (racemic) [Compound 49, N-(1-(6,7-difluoro-4-oxo-3,4-dihydrophthalazin-1-yl)ethyl)-N-ethyl-4,5-difluoro-1H-indole-2-carboxamide] | 7.60
CC(c1n[nH]c(=O)c2cc(F)c(F)cc12)N(C)C(=O)Nc1ccc(F)c(C#N)c1 (racemic) [Compound 76, 3-(3-cyano-4-fluorophenyl)-1-(1-(6,7-difluoro-4-oxo-3,4-dihydrophthalazin-1-yl)ethyl)-1-methylurea] | 7.40
CC(c1nn(C)c(=O)c2cc(F)c(F)cc12)N(C)C(=O)Nc1ccc(F)c(Cl)c1 (racemic) [Compound 22, 3-(3-chloro-4-fluoro-phenyl)-1-[1-(6,7-difluoro-3-methyl-4-oxo-phthalazin-1-yl)ethyl]-1-methyl-urea] | 7.59

Same assay, conditions: Hepatitis B virus, HepDE19, 168 h, read-out: DE-19bDNA EC50

SMILES | pEC50
C[C@H](c1n[nH]c(=O)c2cc(F)c(F)cc12)N(C)C(=O)c1cc2c(F)c(F)ccc2[nH]1 [Compound 57, (R)-N-(1-(6,7-difluoro-4-oxo-3,4-dihydrophthalazin-1-yl)ethyl)-4,5-difluoro-N-methyl-1H-indole-2-carboxamide] | 7.92
C[C@H](c1n[nH]c(=O)c2cc(F)c(F)cc12)N(C)C(=O)Nc1cc(F)c(F)c(F)c1 [Compound 42, (R)(1-(6,7-difluoro-4-oxo-3,4-dihydrophthalazinyl)ethyl)methyl-3-(3,4,5-trifluorophenyl)urea] | 7.60
C[C@H](c1n[nH]c(=O)c2cc(F)c(F)cc12)N(C)C(=O)c1cc2ccccc2[nH]1 [Compound 46, (R)-N-(1-(6,7-difluoro-4-oxo-3,4-dihydrophthalazin-1-yl)ethyl)-N-methyl-1H-indole-2-carboxamide] | 7.49
C[C@H](c1nn(C)c(=O)c2cc(F)c(F)cc12)N(C)C(=O)Nc1ccc(F)c(Cl)c1 [Compound 36, (R)-3-(3-chloro-4-fluorophenyl)-1-[1-(6,7-difluoro-3-methyl-4-oxo-phthalazin-1-yl)ethyl]-1-methyl-urea] | 7.89
